Data on two compounds can be found in patent publication US20130137701A1, “COMBINATION” (priority 2010, published 2013).

For orientation: pIC50 means the IC50 on a negative log10 scale, so that one unit is a factor of ten.

pIC50: −log10 of the molar value. Read-outs that look alike come from different tables or passages of the source.

One test concerns BT-474. In words: Cell growth inhibition assay (Cell Titer Glo). It counts as cell-based, Human. Particulars: BT-474, Breast, HER2+, PIK3CA K111N, 3 days, read-out: Single Agent (IC50). The method, then:
(§1) All cells were cultured without lapatinib for a minimum of 72 hours prior to cell plating. Cells were assayed in a 96-well tissue culture plate (NUNC 136102) of RPMI medium containing 10
(§2) % FBS for all cells at 2,000 cells per well except KPL4, which were plated in DMEM containing 5% FBS at 500 cells per well. […] Cells were incubated in the presence of compounds for 3 days. ATP levels were determined by adding Cell Titer Glo® (Promega) according to the manufacturer's protocol. Briefly, Cell Titer Glo® was added each plate, incubated for 20 minutes then luminescent signal was read on the SpectraMax L plate reader with a 0.5 sec integration time.
(§3) Inhibition of cell growth was estimated after treatment with compound or combination of compounds for three days and comparing the signal to cells treated with vehicle (DMSO). Cell growth was calculated relative to vehicle (DMSO) treated control wells. Concentration of compound that inhibits 50% of control cell growth (IC50) was interpolated using nonlinear regression with the equation, y=(A+(B−A)/(1+(C/x)̂D)))), where A is the minimum response (ymin), B is the maximum response (ymax), C is the inflection point of the curve (EC50) and D is the Hill coefficient. […]
For orientation: In ATP-based viability assays light output follows the ATP content of the culture.

The test system of a further test is HCC1937. In words: Cell growth inhibition assay (Cell Titer Glo). It counts as cell-based, Human. The following applies: HCC1937, Breast, HER−, PIK3CA WT; 3 days; read-out: Single Agent (IC50). The method, then: as §1, §2, §3
A further test has as its system HCC202. The test can be described thus: Cell growth inhibition assay (Cell Titer Glo). It counts as cell-based, Human. The following applies: HCC202, Breast, HER2+, PIK3CA E545K, 3 days; for pIC50: read-out: Single Agent (IC50). The method, then:
as §1, §2, §3

Another test has as its system MDA-MB-175-VII. The test can be described thus: Cell growth inhibition assay (Cell Titer Glo). In kind it is cell-based, Human. Particulars: Breast, HER−, PIK3CA WT, 3 days, read-out: Single Agent (IC50). The method, then: as §1, §2, §3
A further test relates to MDA-MB-361. In words: Cell growth inhibition assay (Cell Titer Glo). In kind it is cell-based, Human. Particulars: MDA-MB-361 (resistant line), Breast, HER2+, PIK3CA E545K, 3 days; for pIC50: Homo sapiens, 72 h, read-out: Single Agent (IC50). The method, then: as §1, §2, §3
The test system of a further test is MDA-MB-453. The test can be described thus: Cell growth inhibition assay (Cell Titer Glo). It counts as cell-based, Human. Particulars: MDA-MB-453, Breast, HER2+, PIK3CA H1047R, 3 days; for pIC50: Homo sapiens, 72 h, read-out: Single Agent (IC50). On the procedure: as §1, §2, §3
In another test the test system is SK-BR-3. The test can be described thus: Cell growth inhibition assay (Cell Titer Glo). It counts as cell-based, Human. Particulars: SK-BR-3, Breast, HER2+, PIK3CA WT, 3 days, read-out: Single Agent (IC50). On the procedure: as §1, §2, §3
For the next test, the system named is UACC893. In words: Cell growth inhibition assay (Cell Titer Glo). In kind it is cell-based, Human. Particulars: UACC893, Breast, HER2+, PIK3CA H1047R, 3 days, read-out: Single Agent (IC50). The method, then:
as §1, §2, §3

The test system of the next test is BT-474-J4. In words: Cell growth inhibition assay (Cell Titer Glo). In kind it is cell-based. The following applies: Homo sapiens, 72 h, BT-474-J4 (resistant line), Breast, HER2+, PIK3CA K111N; 3 days; read-out: Single Agent (IC50). On the procedure:
(§4) JIMT-1 is a line derived from a patient clinically resistant to trastuzumab (Herceptin®). SK-BR-3-W13 is a single cell clone isolated by a cloning cylinder after a single treatment of SK-BR-3 cells with 0.5 μM lapatinib. BT-474-J4 is a single cell clone derived from a culture of BT-474 cells that were selected to grow in lapatinib to a concentration of 3 μM.
as §1, §2, §3

Another test deals with SK-BR-3-W13. The test can be described thus: Cell growth inhibition assay (Cell Titer Glo). In kind it is cell-based. Particulars: Homo sapiens, 72 h; SK-BR-3-W13 (resistant line), Breast, HER2+, PIK3CA WT; 3 days; read-out: Single Agent (IC50). The method, then:
as §4, §1, §2, §3

The subject of the next test is JIMT-1. In words: Cell growth inhibition assay (Cell Titer Glo). It counts as cell-based, Human. Particulars: JIMT-1 (resistant line), Breast, HER2+, PIK3CA WT, 3 days, read-out: Single Agent (IC50). The method, then:
as §4, §1, §2, §3

Test [1] concerns caspase 3/7 activity in BT474 cells. In words: Cell apoptosis assay, caspase-3/7 activation (Caspase Glo 3/7). Particulars: 24 h post treatment. In kind it is cell-based, Human. The method, then:
as §4
(§5) For investigation of the induction of apoptosis, cells were plated at 5,000 cells per well in a 96-well tissue culture plate and allowed to attach for approximately 24 hours. Cells were then treated with compounds as described above. 24 hours after compound treatment, the levels of active caspase 3 and caspase 7 were determined with the Caspase Glo™ 3/7 (Promega, cat G8093) according to the instructions provided by the manufacturer. 48 hours after treatment with compound, levels of apoptosis were estimated using the Roche Cell Death ELISA (Cat. No. 11 774 425 001) following the instructions provided by the manufacturer.

Test [2] has as its system caspase 3/7 activity in HCC1419 cells. Described as above. In kind it is cell-based, Human. Particulars: 24 h post treatment. The method, then:
as §4, §5

Test [3] has as its system caspase 3/7 activity in UACC893 cells. Described as above. In kind it is cell-based, Human. The following applies: 24 h post treatment. On the procedure: as §4, §5
Another test has as its system CHL-1. In words: Cell growth inhibition assay (Cell Titer Glo). The following applies: CHL-1, Melanoma, HER−, PIK3CA WT, 3 days, read-out: Single Agent (IC50). It counts as cell-based, Human. The method, then: as §1, §2, §3
A further test deals with KPL4. In words: Cell growth inhibition assay (Cell Titer Glo). It counts as cell-based, Human. The following applies: KPL4, Breast, HER2+, PIK3CA H1047R, 3 days, read-out: Single Agent (IC50). On the procedure: as §1, §2, §3
A further test relates to ZR-75-1. The test can be described thus: Cell growth inhibition assay (Cell Titer Glo). It counts as cell-based, Human. Particulars: ZR-75-1, Breast, HER−, PIK3CA WT, 3 days, read-out: Single Agent (IC50). The method, then: as §1, §2, §3

As to `CS(=O)(=O)CCNCc1ccc(-c2ccc3ncnc(Nc4ccc(OCc5cccc(F)c5)c(Cl)c4)c3c2)o1` [Compound A, N-{3-Chloro-4-[(3-fluorobenzyl)oxy]phenyl}-6-[5-({[2-(methanesulphonyl)ethyl]amino}methyl)-2-furyl]-4-quinazolinamine ditosylate monohydrate], the negative-log IC50 (pIC50) in the test on BT-474 (ditosylate monohydrate) is 6.62; in the test on BT-474 (Homo sapiens, BT-474, 72 h), over 6.70; in the test with HCC1937, under 6.00; in the test with HCC202 (Homo sapiens, HCC202, 72 h), 5.33; in the test on MDA-MB-175-VII (ditosylate monohydrate), 6.97; in the test with MDA-MB-175-VII (Homo sapiens, 72 h) it was over 6.70. Besides, the pIC50 in the test on MDA-MB-361 is under 5.00; with MDA-MB-453 it was 5.61; in the test with SK-BR-3 (Homo sapiens, SK-BR-3, 72 h) it was over 6.70; in the test with SK-BR-3 (ditosylate monohydrate), 6.51; in the test with UACC893 (Homo sapiens, UACC-893, 72 h), over 6.00; with UACC893 (ditosylate monohydrate) it was 5.97. Further, the negative-log IC50 (pIC50) in the test with BT-474-J4 was 5.45; in the test on SK-BR-3-W13 it was 5.15; in the test on JIMT-1 (Homo sapiens, JIMT-1, 72 h), 5.02. Also, the “Single Agent (IC50, μM)” value in the test with HCC202, in the test on MDA-MB-361 and in the test on MDA-MB-453 was “less sensitive” in each case. The “caspase 3/7 activity” value in [1] is “increased caspase 3/7 activity”; in test [2] it was “slight increase in caspase 3/7 activity”; in test [3], “increased caspase 3/7 activity”.

With `COc1ncc(-c2ccc3nccc(-c4ccnnc4)c3c2)cc1NS(=O)(=O)c1ccc(F)cc1F` [Compound B, 2,4-difluoro-N-{2-(methyloxy)-5-[4-(4-pyridazinyl)-6-quinolinyl]-3-pyridinyl}benzenesulfonamide], the negative-log IC50 (pIC50) is 7.55 in the test on BT-474; over 7.30 in the test on BT-474 (Homo sapiens, BT-474, 72 h); 7.42 in the test on CHL-1; over 7.40 with CHL-1 (Homo sapiens, CHL-1, 72 h); 6.69 with HCC202; 6.70 in the test with HCC202 (Homo sapiens, HCC202, 72 h). The negative-log IC50 (pIC50) is over 8.30 in the test on KPL4 (Homo sapiens, KPL4, 72 h); 8.52 in the test with KPL4; 8.05 with MDA-MB-361; 7.82 in the test with MDA-MB-453; over 8.30 in the test on UACC893 (Homo sapiens, UACC-893, 72 h); 8.30 in the test on UACC893. For the same compound, the negative-log IC50 (pIC50) is 5.89 to 8.00 in the test on ZR-75-1 (Homo sapiens, ZR-75-1, 72 h); 7.92 with ZR-75-1; 6.78 with SK-BR-3-W13; over 7.52 in the test on JIMT-1 (Homo sapiens, JIMT-1, 72 h); 7.55 in the test with JIMT-1. The “caspase 3/7 activity” value is recorded as “increased caspase 3/7 activity” in test [1], “slight increase in caspase 3/7 activity” in test [2] and “increased caspase 3/7 activity” in test [3].
